# Experimental data: patent US20250327794A1, “FLUOROMETRIC METHODS FOR DETECTION OF ALLERGIC SENSITIVITY TO ENVIRONMENTAL, FOODSTUFF, AND MEDICAMENT STIMULANTS” (CELL SCIENCE SYSTEMS CORPORATION, priority 2022, published 2025)
# Assays:
# Neutrophils (CD11b+) = type: cell-based, human
# [1] = system: Basophils (CD63+/CD203c+); assay: Basophil activation by COVID-19 vaccines and vaccine components, blood of a hypersensitive subject; type: cell-based, human; conditions: subject with known allergic reaction to mRNA-1273 booster
Molecule,"percent neutrophil activation versus control, vaccine components (Neutrophils (CD11b+))",basophil activation and gross granulocyte activation in response to vaccine components [1]
"2,2-dimyristoyl-rac-glycero3-methoxypolyethylene glycol-2000 [PEG2000-DMG]",higher percent neutrophil activation versus control,marked increase
"2-[(polyethylene glycol)-2000]-N,N-ditetradecylacetamide [ALC0159]",higher percent neutrophil activation versus control,marked increase
2-hydroxypropyl-β-cyclodextrin [HBCD],higher percent neutrophil activation versus control,–
CCCCCCCCC(CCCCCC)C(=O)OCCCCCCN(CCCCO)CCCCCCOC(=O)C(CCCCCC)CCCCCCCC (stereo not shown) [ALC0315],higher percent neutrophil activation versus control,marked increase
"CCCCCCCCCCCCCCCCCC(=O)OC[C@H](COP(=O)([O-])OCC[N+](C)(C)C)OC(=O)CCCCCCCCCCCCCCCCC [DSPC, 1,2-diastearoyl-sn-glycero-3-phosphocholine]",did not,–
CCCCCCCCCCCOC(=O)CCCCCN(CCO)CCCCCCCC(=O)OC(CCCCCCCC)CCCCCCCC [SM102],higher percent neutrophil activation versus control,marked increase
CCO [ethanol],did not,–
polysorbate-80 [PS80],higher percent neutrophil activation versus control,marked increase
